From patent publication US20190330607A1, “USE OF A SUGAR TOLERANT BETA-GLUCOSIDASE” (Universitè de Liége, priority 2016, published 2019)
Where two headings read alike, the source gives them in different places.

What was measured:
Format in all cases: biochemical
[1] = test system: BglC (beta-glucosidase of Streptomyces scabies 87-22); test: Relative enzyme activity of BglC with p-NPβG as substrate in presence of tested reagent
Method: (§1) Relative enzyme activity was determined using p-nitrophenyl-β-D-glucopyranoside (p-NPβG) as substrate. The reaction mixture (200 μL) containing 50 mM HEPES buffer (pH 7.5), 0.2 μM of purified BglC and the tested reagent was incubated 10 minutes at 25° C. before addition of 1 mM p-NPβG. The reaction was carried out at 25° C. for 2 minutes and stopped by addition of 100 μL of 2 M Na2CO3. All assays were performed under these conditions, unless otherwise indicated. The release of p-nitrophenol (p-NP) was measured at 405 nm with a TECAN Infinite® 200 PRO. The activity assayed in absence of the tested reagent was recorded as 100%.

[2] = Substrate specificity of BglC by thin layer chromatography; conditions: 30° C.
Method: The cleavage ability of BglC was tested against different cello-oligosaccharides (cellobiose, cellotriose, cellotetraose, cellopentaose and cellohexaose (Megazyme; Ireland)) or different disaccharides (lactose, saccharose, maltose, threalose and turanose). Reaction mixtures (100 μL) containing 50 mM HEPES buffer pH 7.5, 0.4 μM of purified BglC, 6.25 mM of cello-oligosaccharides or 12.5 mM of disaccharides were incubated at 30° C. 15 μL of each sample were collected at 0, 15, 30 and 60 min than heated at 98° C. for 5 min to stop the reaction. Each sample was spotted onto aluminum-backed Silica gel plate (Sigma). The plates were developed with chloroform-methanol-acetic acid-water solvent (50:50:15:5, vol/vol), air dried, dipped in 5% H2SO4 in ethanol and finally heated over a hot plate until visualization of carbohydrate spots.

[3] = Effect of temperature and pH on BglC activity (p-NPβG)
Method: as §1
The optimal temperature was determined by measuring the relative enzyme activity of BglC in HEPES 50 mM pH 7.5 at 20, 25, 30, 37 and 42° C. To measure the effect of pH on activity of BglC, relative activity was essayed in the range of pH 5.0-6.5 (50 mM MES buffer), pH 7.0-8.5 (50 mM HEPES buffer) and pH 9-10 (50 mM CHES buffer) at 25° C.

[4] = Kinetic analysis of BglC on cellobiose (glucose released, D-Glucose HK Assay Kit)
Method: Kinetic parameters of BglC (Km and kcat) were determined by measuring the glucose released at various cellobiose concentrations in 50 mM HEPES buffer pH 7.5 at 26° C. Reaction time of 7 min was chosen to ensure initial rates of hydrolysis. The glucose released was determined using the D-Glucose HK Assay Kit from Megazyme (Ireland). Data were fitted to the Henri-Michaelis-Menten equation using the GraphPad Prism 5 software.

[5] = Time course of cellobiose hydrolysis by BglC over 7 days, HPLC
Method: Glucose and cellobiose analysis was performed by HPLC on an Aminex HPX-87P Column (300×7.8 mm) heated to 80° C. with H2O as eluent (flow rate 0.6 mL/min). Peaks were detected by refractive index detector (Waters 2414).
The tolerance of BglC to glucose was further investigated during prolonged reaction time (7 days). Cellobiose and glucose quantification were performed by HPLC (FIG. 5). 80% of cellobiose was hydrolyzed in 48 h (FIG. 5).

[6] = Oses (15%), control = 100%, p-NPβG substrate
[7] = reagent 10 mM, activity without additive = 100%
[8] = reagent 10%, activity without additive = 100%
[9] = substrate cellobiose, 50 mM HEPES pH 7.5, 26° C.

O=C[C@H](O)[C@@H](O)[C@H](O)CO [Xylose, xylose]
Relative initial rate of hydrolysis (%) [1, 6]: 340 ± 20%
maximal activity of BglC ([1]; xylose 0.3 to 1.6 M (FIG. 4)): 300-350%

O[C@H](CS)[C@H](O)CS (racemic) [DTT, dithiothreitol]
Relative initial rate of hydrolysis (%) [1, 7]: 116 ± 5%

OC[C@@H](O)[C@@H](O)[C@H](O)[C@@H](O)CO [Sorbitol, sorbitol]
Relative initial rate of hydrolysis (%) [1, 6]: 202 ± 1%

CCCCCCCCCCCCOS(=O)(=O)[O-].[Na+] [SDS]
Relative initial rate of hydrolysis (%) [1, 7]: 64 ± 3%

O=C[C@H](O)[C@@H](O)[C@@H](O)[C@H](O)CO [Galaclose, galactose]
Relative initial rate of hydrolysis (%) [1, 6]: 255 ± 9%

CCO [Ethanol, ethanol]
ethanol concentration with maximal enhancing activity ([1]; ethanol 0 to 40% tested (FIG. 6)): 15%
Relative initial rate of hydrolysis (%) [1, 8]: 218 ± 6%

[Cl-].[Na+] [NaCl]
activity of BglC kept ([1]; NaCl 500 mM (FIG. 7)): around 70%
activity of BglC ([1]; NaCl 1 M (FIG. 7)): about 50%
effect on capacity of the enzyme to hydrolyze p-NPβG ([1]; NaCl below 100 mM (FIG. 7)): does not significantly alter

NC(N)=O [Urea, urea]
Relative initial rate of hydrolysis (%) [1, 7]: 103 ± 13%

O=C(O)CN(CCN(CC(=O)O)CC(=O)O)CC(=O)O [EDTA, ethylene diamine tetraacetic acid]
Relative initial rate of hydrolysis (%) [1, 7]: 98 ± 15%

O=C(CO)[C@@H](O)[C@H](O)[C@H](O)CO [Fructose, fructose]
Relative initial rate of hydrolysis (%) [1, 6]: 178 ± 9%

CO [Methanol, methanol]
Relative initial rate of hydrolysis (%) [1, 8]: 65 ± 6%

B1: BglC: recombinant His-tagged beta glucosidase of Streptomyces scabies 87-22, SEQ ID NO:2 (protein, listed as Streptomyces scabiei)
chain: MPEPVNPATPVTFPPAFLWGAATSAYQIEGAVREDGRTPSIWDTFSHTPGKTAGGENGDIAVDHYHRYRDDVAMMADLGLNAYRFSVSWSRVQPTGRGPAVQKGLDFYRRLVDELLAKGIKPAVTLYHWDLPQELEDAGGWPERDIVHRFAEYARIMGEALGDRVEQWITLNEPWCTAFLGYGSGVHAPGRTDPVASLRAAHHLNVAHGLGVSALRSAMPARNSIAVSLNSSVVRPITSSPEDRAAARKIDDLANGVFHGPMLHGAYPETLFAATSSLTDWSFVRDGDVATAHQPLDALGLNYYTPALVGAADAGLEGPRADGHGASEHSPWPAADDVLFHQTPGERTEMGWTIDPTGLHELIMRYAREAPGLPMYVTENGAAYDDKMDADGRVHDPERIAYLHGHLRAVRRAIAEGADVRGYYLWSLMDNFEWAYGYGKRFGAVYVDYATLTRTPKSSAHWYGQAAKTGALPPLAPAPA
modifications: His6 tag
hydrolysis of cellobiose and cello-oligosaccharides (cellotriose to cellohexaose) ([2]; 6.25 mM substrate, 0.4 μM BglC, 0-60 min (FIG. 2)): able to generate glucose
hydrolysis of other disaccharides (saccharose, maltose, threalose, turanose) ([2]; 12.5 mM disaccharides): did not reveal hydrolysis
hydrolysis of lactose ([2]; 12.5 mM, compared with cellobiose or cello-oligosaccharides): much less efficiency
optimal pH ([3]; 25° C., pH 5-10 tested): around 7.5
activity relative to maximal activity ([3]; 42° C., HEPES 50 mM pH 7.5 (FIG. 3A)): 10%
Vmax [4]: 7.3 µmol/min/mg
Km [4, 9]: 770 µM
Vmax [4, 9]: 7.3 µmol/min/mg
kcat [4, 9]: 400 min⁻¹
transglycosylation activity ([5]; between glucose and cellobiose, 7 days reaction, glucose only product detected): no or reduced transglycosylation activity
cellobiose hydrolyzed ([5]; in 48 h (FIG. 5)): 80%
